# Results reported in ChEMBL document CHEMBL4390670, “4-Aryl Pyrrolidines as a Novel Class of Orally Efficacious Antimalarial Agents. Part 1: Evaluation of 4-Aryl- N-benzylpyrrolidine-3-carboxamides” (J Med Chem, 2019).
# Active and inactive are the calls of the source. The calls are words filed in the database; no cut-off is given here.
# Columns and labels:
# [1] = target: Voltage-gated inwardly rectifying potassium channel KCNH2 (Homo sapiens, UniProt Q12809)
# Description: Inhibition of Tracer Red binding to human ERG expressed in membranes by fluorescence polarization assay
# hERG = assay: in vitro; settings: human, membranes expressing human ERG, probe Tracer Red
# Description: Selectivity ratio of IC50 for inhibition of Tracer Red binding to human ERG expressed in membranes to IC50 for chloroquine-sensitive Plasmodium falciparum 3D7
# Plasmodium falciparum [2] = assay: microbe, parasite or virus in culture; settings: 3D7, 72 h
# Description: (§1) Antimalarial activity against chloroquine-sensitive Plasmodium falciparum 3D7 measured after 72 hrs by SYBR Green 1 dye based fluorescence assay
# Plasmodium falciparum [3] = tested on: Plasmodium falciparum
# Description: as §1
# Plasmepsin 4 = Plasmepsin 4 (Plasmodium falciparum, UniProt Q17SB2); assay: Inhibition of Plasmodium falciparum plasmepsin 4 using EDANS-CO-CH2-CH2-CO-ALERMFLSFP-Dap(DABCYL)OH as substrate measured after 60 mins by fluorescence assay
# Chain of Plasmepsin 4 (Q17SB2 whole entry): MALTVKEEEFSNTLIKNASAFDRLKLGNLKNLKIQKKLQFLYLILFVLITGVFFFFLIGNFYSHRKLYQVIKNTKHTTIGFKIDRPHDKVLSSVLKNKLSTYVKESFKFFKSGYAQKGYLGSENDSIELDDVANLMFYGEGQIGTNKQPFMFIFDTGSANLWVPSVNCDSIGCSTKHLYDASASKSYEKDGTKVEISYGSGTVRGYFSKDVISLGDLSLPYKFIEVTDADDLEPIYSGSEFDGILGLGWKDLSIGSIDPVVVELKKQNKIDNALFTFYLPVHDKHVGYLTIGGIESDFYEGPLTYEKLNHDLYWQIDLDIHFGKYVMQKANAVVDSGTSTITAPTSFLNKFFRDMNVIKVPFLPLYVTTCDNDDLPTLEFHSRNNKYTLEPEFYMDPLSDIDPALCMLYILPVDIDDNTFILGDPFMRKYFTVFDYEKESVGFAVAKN
# [4] = Half life in mouse liver microsomes at 1 uM measured after 30 mins in presence of NADPH by LC-MS/MS analysis; format: ADME, Microsome; settings: for t1/2: microsomes, 0.5 h, 1 µM
# [5] = Intrinsic clearance in mouse liver microsomes at 1 uM measured after 30 mins in presence of NADPH by LC-MS/MS analysis; format: ADME, Microsome; settings: 0.5 h
# Beta-secretase 1 = Beta-secretase 1 (Homo sapiens, UniProt P56817); assay: Inhibition of recombinant human C-terminal His10-tagged BACE1 using Mca-SEVNLDAEFRK(Dpn)RR-NH2 as substrate measured after 60 mins by TR-FRET assay
# Chain of Beta-secretase 1 (P56817 whole entry): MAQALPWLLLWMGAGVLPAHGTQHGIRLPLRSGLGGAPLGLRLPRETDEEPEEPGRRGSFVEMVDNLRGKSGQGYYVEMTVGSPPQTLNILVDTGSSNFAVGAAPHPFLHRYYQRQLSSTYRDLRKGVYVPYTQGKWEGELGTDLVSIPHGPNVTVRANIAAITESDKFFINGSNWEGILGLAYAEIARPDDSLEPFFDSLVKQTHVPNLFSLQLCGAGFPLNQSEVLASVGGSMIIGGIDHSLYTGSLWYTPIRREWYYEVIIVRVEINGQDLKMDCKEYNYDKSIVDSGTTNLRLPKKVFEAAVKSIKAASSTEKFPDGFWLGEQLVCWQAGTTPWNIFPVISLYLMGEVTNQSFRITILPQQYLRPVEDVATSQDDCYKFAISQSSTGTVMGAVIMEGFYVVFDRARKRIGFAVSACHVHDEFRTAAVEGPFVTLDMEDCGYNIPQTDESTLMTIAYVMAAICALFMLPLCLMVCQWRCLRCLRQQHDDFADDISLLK
# Plasmepsin II = Plasmepsin II (Plasmodium falciparum, UniProt P46925); assay: Inhibition of Plasmodium falciparum plasmepsin 2 using EDANS-CO-CH2-CH2-CO-ALERMFLSFP-Dap(DABCYL)OH as substrate measured after 60 mins by fluorescence assay
# Chain of Plasmepsin II (P46925 whole entry): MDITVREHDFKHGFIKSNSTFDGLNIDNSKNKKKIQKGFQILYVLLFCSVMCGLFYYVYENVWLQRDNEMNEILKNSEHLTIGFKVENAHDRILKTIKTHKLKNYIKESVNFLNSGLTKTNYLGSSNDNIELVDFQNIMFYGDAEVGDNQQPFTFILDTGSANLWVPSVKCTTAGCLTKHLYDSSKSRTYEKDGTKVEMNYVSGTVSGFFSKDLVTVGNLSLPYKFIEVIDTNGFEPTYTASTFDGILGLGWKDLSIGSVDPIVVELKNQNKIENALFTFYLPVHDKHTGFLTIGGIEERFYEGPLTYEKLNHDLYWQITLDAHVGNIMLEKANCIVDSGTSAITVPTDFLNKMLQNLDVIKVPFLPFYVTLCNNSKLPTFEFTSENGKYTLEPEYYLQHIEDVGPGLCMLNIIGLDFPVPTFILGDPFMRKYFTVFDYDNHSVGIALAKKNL
# [6] = Oral bioavailability in mouse at 5 mg/kg by LC-MS analysis; settings: in vivo
# [7] = Half life in mouse at 2 mg/kg, iv by LC-MS analysis; format: ADME, organism-based; settings: in vivo
# [8] = Apparent volume of distribution in mouse at 2 mg/kg, iv by LC-MS analysis; format: ADME, organism-based; settings: in vivo, read-out: Vz
# [9] = Apparent clearance in mouse at 2 mg/kg, iv by LC-MS analysis; format: ADME, organism-based; settings: in vivo, read-out: CL(app)
# [10] = target: Plasmepsin V (Plasmodium falciparum (isolate 3D7)) (UniProt Q8I6Z5); assay: Inhibition of Plasmodium falciparum plasmepsin 5 by knockdown assay
# Chain of Plasmepsin V (Plasmodium falciparum (isolate 3D7)) (Q8I6Z5 whole entry, looked up): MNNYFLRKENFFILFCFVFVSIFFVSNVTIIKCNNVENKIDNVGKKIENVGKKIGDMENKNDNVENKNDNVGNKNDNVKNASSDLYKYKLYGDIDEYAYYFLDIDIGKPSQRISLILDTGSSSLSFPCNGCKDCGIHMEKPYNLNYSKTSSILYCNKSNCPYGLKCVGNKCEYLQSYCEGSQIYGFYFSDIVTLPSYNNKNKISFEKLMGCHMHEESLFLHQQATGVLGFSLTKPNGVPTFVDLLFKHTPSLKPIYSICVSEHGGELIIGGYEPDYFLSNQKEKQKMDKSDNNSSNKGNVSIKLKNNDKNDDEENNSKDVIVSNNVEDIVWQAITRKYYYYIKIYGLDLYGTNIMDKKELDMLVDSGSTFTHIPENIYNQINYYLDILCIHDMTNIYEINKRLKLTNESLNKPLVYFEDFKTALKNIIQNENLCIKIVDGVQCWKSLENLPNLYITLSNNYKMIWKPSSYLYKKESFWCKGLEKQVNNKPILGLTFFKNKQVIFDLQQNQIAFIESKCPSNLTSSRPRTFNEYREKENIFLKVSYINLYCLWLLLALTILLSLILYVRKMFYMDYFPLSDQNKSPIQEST
# Plasmodium falciparum [11] = assay: Inhibition of Plasmodium falciparum plasmepsin 9 by Western blot analysis
# HepG2 = assay: Cytotoxicity against human HepG2 cells measured after 72 hrs by PrestoBlue cell viability reagent based assay; settings: HepG2, 72 h
# Plasmodium falciparum [12] = assay: Inhibition of Plasmodium falciparum plasmepsin 10 by Western blot analysis
# [13] = Apparent volume of distribution in mouse at 1 mg/kg, iv by LC-MS analysis; format: ADME, organism-based; settings: in vivo, read-out: Vz
# [14] = Half life in mouse at 1 mg/kg, iv by LC-MS analysis; format: ADME, organism-based; settings: in vivo
# [15] = Apparent clearance in mouse at 1 mg/kg, iv by LC-MS analysis; format: ADME, organism-based; settings: in vivo, read-out: CL(app)
# Plasmodium chabaudi = assay: Antimalarial activity against chloroquine-resistant Plasmodium chabaudi ASCQ infected in NIH mouse assessed as inhibition of parasitemia at 10 mg/kg, po administered once daily for 4 days starting from 4 hrs post-infection and measured on day 4 by Peter's 4 day test relative to control; format: functional
# Chain of Voltage-gated inwardly rectifying potassium channel KCNH2 (Q12809 whole entry): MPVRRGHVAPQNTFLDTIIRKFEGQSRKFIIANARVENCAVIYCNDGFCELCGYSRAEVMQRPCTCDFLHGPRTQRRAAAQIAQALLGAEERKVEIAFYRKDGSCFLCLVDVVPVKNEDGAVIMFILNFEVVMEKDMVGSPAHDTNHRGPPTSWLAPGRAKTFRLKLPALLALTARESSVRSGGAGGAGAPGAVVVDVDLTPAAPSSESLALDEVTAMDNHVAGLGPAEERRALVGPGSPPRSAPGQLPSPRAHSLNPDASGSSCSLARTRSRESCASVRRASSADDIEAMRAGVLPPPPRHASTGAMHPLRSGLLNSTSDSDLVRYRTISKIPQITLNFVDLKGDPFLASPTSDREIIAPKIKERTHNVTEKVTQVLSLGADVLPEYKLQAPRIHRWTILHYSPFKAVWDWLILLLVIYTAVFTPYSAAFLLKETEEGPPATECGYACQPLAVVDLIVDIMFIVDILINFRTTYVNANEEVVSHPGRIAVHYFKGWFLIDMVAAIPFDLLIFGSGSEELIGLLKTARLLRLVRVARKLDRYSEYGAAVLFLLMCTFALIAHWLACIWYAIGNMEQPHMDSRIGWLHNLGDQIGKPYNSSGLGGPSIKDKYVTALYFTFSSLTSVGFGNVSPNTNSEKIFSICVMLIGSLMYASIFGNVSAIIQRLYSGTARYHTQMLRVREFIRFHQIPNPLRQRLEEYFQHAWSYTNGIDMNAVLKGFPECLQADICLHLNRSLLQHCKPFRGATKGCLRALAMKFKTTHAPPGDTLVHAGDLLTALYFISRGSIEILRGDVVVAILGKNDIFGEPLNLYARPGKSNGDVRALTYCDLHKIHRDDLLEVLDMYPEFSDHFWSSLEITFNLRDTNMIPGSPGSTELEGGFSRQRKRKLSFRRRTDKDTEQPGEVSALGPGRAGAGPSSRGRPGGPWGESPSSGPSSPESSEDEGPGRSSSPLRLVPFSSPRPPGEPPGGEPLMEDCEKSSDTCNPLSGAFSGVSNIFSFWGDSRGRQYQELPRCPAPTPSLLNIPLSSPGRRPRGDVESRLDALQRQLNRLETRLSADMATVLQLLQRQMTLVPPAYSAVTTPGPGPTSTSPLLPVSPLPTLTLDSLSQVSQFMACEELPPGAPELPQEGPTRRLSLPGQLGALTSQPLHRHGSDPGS
structure (smiles),measurement,setting,value
C[C@H](NC(=O)[C@H]1CNC[C@@H]1c1ccc(C(F)(F)F)nc1)c1ccc(N(C)C)cc1,IC50,[1],> 50000 nM
same,selectivity ratio,hERG,> 357
same,IC50,Plasmodium falciparum [2],140 nM
C[C@@H](NC(=O)[C@H]1CNC[C@@H]1c1ccc(C(F)(F)F)nc1)c1ccc(N(C)C)cc1,IC50,Plasmodium falciparum [2],11000 nM
O=C(NCc1ccc(-c2ccccc2)cc1)[C@H]1CNC[C@@H]1c1ccc(C(F)(F)F)nc1,IC50,Plasmodium falciparum [2],5900 nM
O=C(NCc1ccc(Br)cc1)[C@H]1CNC[C@@H]1c1ccc(C(F)(F)F)nc1,IC50,Plasmodium falciparum [2],1200 nM
CN(C)c1ccc(CNC(=O)[C@H]2CNC[C@@H]2c2ccc(C(F)(F)F)nc2)cc1,IC50,Plasmodium falciparum [3],116 nM
O=C(NCc1ccc(-n2cccn2)cc1)[C@H]1CNC[C@@H]1c1ccc(C(F)(F)F)nc1,IC50,Plasmodium falciparum [2],29000 nM
CN(C)c1ccc(CNC(=O)[C@H]2CNC[C@@H]2c2ccc(C(F)(F)F)nc2)cn1,IC50,Plasmodium falciparum [2],1000 nM
C[C@H](NC(=O)[C@@H]1CNC[C@H]1c1ccc(C(F)(F)F)cc1)c1ccc(N(C)C)cc1,IC50,Plasmodium falciparum [2],130 nM
C[C@H](NC(=O)[C@@H]1CNC[C@H]1c1ccc(C(F)(F)F)nc1)c1ccc(N(C)C)cc1,IC50,Plasmodium falciparum [2],380 nM
O=C(NCc1ccc(C(F)(F)F)nc1)[C@H]1CNC[C@@H]1c1ccc(C(F)(F)F)nc1,IC50,Plasmodium falciparum [2],18000 nM
CN(C)c1ccc(CNC(=O)[C@H]2CNC[C@@H]2c2ccc(C(F)(F)F)cc2)cc1 (racemic),IC50,Plasmepsin 4,> 10000 nM
same,t1/2,[4],35 min
same,Intrinsic clearance (CLint),[5],6.2 µL/min/mg
same,IC50,Beta-secretase 1,> 10000 nM
same,IC50,[1],9410 nM
same,IC50,Plasmepsin II,> 10000 nM
same,IC50,Plasmodium falciparum [2],200 nM
Cc1ccc([C@@H]2CNC[C@H]2C(=O)NCc2ccc(N(C)C)cc2)cc1Cl (racemic),IC50,Plasmodium falciparum [2],230 nM
CN(C)c1ccc(CNC(=O)[C@H]2CNC[C@@H]2c2ccc3ccsc3c2)cc1 (racemic),IC50,Plasmodium falciparum [2],240 nM
CN(C)Cc1ccc(CNC(=O)[C@H]2CNC[C@@H]2c2ccc(C(F)(F)F)nc2)cc1 (racemic),IC50,Plasmodium falciparum [2],> 20000 nM
CN(C)c1ccc(CNC(=O)[C@@H]2CNC[C@H]2c2ccc(Oc3ccccc3)cc2)cc1 (racemic),IC50,Plasmepsin 4,> 10000 nM
same,t1/2,[4],31 min
same,Intrinsic clearance (CLint),[5],7.2 µL/min/mg
same,IC50,Beta-secretase 1,> 10000 nM
same,IC50,[1],2110 nM
same,IC50,Plasmepsin II,> 10000 nM
same,IC50,Plasmodium falciparum [2],170 nM
CN(C)c1ccc(CNC(=O)[C@@H]2CNC[C@H]2c2cccc(Oc3ccccc3)c2)cc1 (racemic),IC50,Plasmodium falciparum [2],1800 nM
CN(C)c1ccc(CNC(=O)[C@H]2CNC[C@@H]2c2ccc(C(F)(F)F)s2)cc1 (racemic),IC50,Plasmodium falciparum [2],1100 nM
CN(C)c1ccc(CNC(=O)[C@H]2CNC[C@@H]2c2ccc(C(C)(F)F)cc2)cc1 (racemic),IC50,Plasmodium falciparum [2],130 nM
CN(C)c1ccc(CNC(=O)[C@@H]2CNC[C@H]2c2ccc(Cl)cc2)cc1 (racemic),IC50,Plasmodium falciparum [2],680 nM
CN(C)c1ccc(CNC(=O)[C@@H]2CNC[C@H]2c2cnc3ccccc3c2)cc1 (racemic),IC50,Plasmodium falciparum [2],280 nM
CN(C)c1ccc(CNC(=O)[C@H]2CNC[C@@H]2c2ccc(C(F)F)cc2)cc1 (racemic),IC50,Plasmodium falciparum [2],250 nM
CN(C)c1ccc(CNC(=O)[C@H]2CNC[C@@H]2c2cc3ccccc3s2)cc1 (racemic),IC50,Plasmodium falciparum [2],270 nM
CN(C)c1ccc(CNC(=O)[C@H]2CNC[C@@H]2c2ccc(C(F)(F)F)nc2)cc1 (racemic),IC50,Plasmepsin 4,> 10000 nM
same,t1/2,[4],70 min
same,Intrinsic clearance (CLint),[5],3.1 µL/min/mg
same,IC50,Beta-secretase 1,> 10000 nM
same,bioavailability,[6],13%
same,IC50,[1],21700 nM
same,IC50,Plasmepsin II,> 10000 nM
same,half-life,[7],396 min
same,Vd,[8],3.2 L/kg
same,IC50,Plasmodium falciparum [2],230 to 250 nM
same,clearance,[9],5.9 mL/min/kg
CN(C)c1ccc(CNC(=O)[C@H]2CNC[C@@H]2c2cc(C(F)(F)F)n(C)n2)cc1 (racemic),IC50,Plasmodium falciparum [2],5300 nM
CN(C)c1ccc(CNC(=O)[C@H]2CNC[C@@H]2c2ccc(C(C)(C)C)s2)cc1 (racemic),IC50,Plasmodium falciparum [2],280 nM
CN(C)c1ccc(CNC(=O)[C@@H]2CNC[C@H]2c2ccc(C(F)(F)F)c(F)c2)cc1 (racemic),IC50,Plasmepsin 4,> 10000 nM
same,t1/2,[4],34 min
same,Intrinsic clearance (CLint),[5],6.4 µL/min/mg
same,IC50,Beta-secretase 1,> 10000 nM
same,IC50,[1],8540 nM
same,IC50,Plasmepsin II,> 10000 nM
same,IC50,Plasmodium falciparum [2],140 nM
CCN(CC)c1ccc(CNC(=O)[C@@H]2CNC[C@H]2c2ccc(C(F)(F)F)cc2)cc1 (racemic),IC50,Plasmepsin 4,> 10000 nM
same,IC50,Beta-secretase 1,> 10000 nM
same,IC50,[1],4740 nM
same,IC50,Plasmepsin II,> 10000 nM
same,IC50,Plasmodium falciparum [2],600 nM
CN(C)c1ccc(CNC(=O)[C@@H]2CNC[C@H]2c2ccc(C(F)(F)F)cc2F)cc1 (racemic),IC50,Plasmodium falciparum [2],890 nM
CN(C)c1ccc(CNC(=O)[C@H]2CNC[C@@H]2c2cc3ccccc3o2)cc1 (racemic),IC50,Plasmodium falciparum [2],150 nM
COc1ccc(CNC(=O)[C@@H]2CNC[C@H]2c2ccc(C(F)(F)F)cc2)cc1 (racemic),half-life at 1 µM,[4]; liver microsomes,37 min
same,inhibition,[10],inactive
same,inhibition,Plasmodium falciparum [11],inactive
same,IC50,HepG2,33000 nM
same,IC50,Plasmodium falciparum [2],360 to 385 nM
same,inhibition,Plasmodium falciparum [12],inactive
O=C(NCc1ccccc1)[C@@H]1CNC[C@H]1c1ccc(C(F)(F)F)cc1 (racemic),IC50,Plasmodium falciparum [2],4300 nM
CN(C)c1ccc(CNC(=O)[C@@H]2CNC[C@H]2CCc2ccc(C(F)(F)F)cc2)cc1 (racemic),IC50,Plasmodium falciparum [2],4400 nM
Cc1ccc(CNC(=O)[C@@H]2CNC[C@H]2c2ccc(C(F)(F)F)cc2)cc1 (racemic),Vd,[13],7.3 L/kg
same,IC50,Plasmepsin 4,> 10000 nM
same,half-life,[14],102 min
same,t1/2,[4],161 min
same,Intrinsic clearance (CLint),[5],1.4 µL/min/mg
same,IC50,Beta-secretase 1,> 10000 nM
same,IC50,Plasmepsin II,> 10000 nM
same,clearance,[15],52 mL/min/kg
same,IC50,Plasmodium falciparum [2],460 nM
Cc1ccc([C@@H]2CNC[C@H]2C(=O)NCc2ccc(N(C)C)cc2)cc1 (racemic),IC50,Plasmodium falciparum [2],750 nM
CN(C)c1ccc(CNC(=O)[C@H]2CNC[C@@H]2c2cccc(S(F)(F)(F)(F)F)c2)cc1 (racemic),IC50,Plasmodium falciparum [2],410 nM
CN1CCc2cc(CNC(=O)[C@@H]3CNC[C@H]3c3ccc(C(F)(F)F)cc3)ccc21 (racemic),IC50,Plasmodium falciparum [2],230 nM
O=C(NCc1ccc(N2CCCC2)cc1)[C@H]1CNC[C@@H]1c1ccc(C(F)(F)F)nc1 (racemic),IC50,Plasmodium falciparum [2],640 nM
CN(C)c1ccc(CNC(=O)[C@H]2CNC[C@@H]2c2cnc(C(F)(F)F)s2)cc1 (racemic),IC50,Plasmodium falciparum [2],1500 nM
CN(C)c1ccc(CNC(=O)[C@@H]2CNC[C@H]2c2ccc(C(F)(F)F)c(Cl)c2)cc1 (racemic),IC50,Plasmepsin 4,> 10000 nM
same,t1/2,[4],33 min
same,Intrinsic clearance (CLint),[5],6.7 µL/min/mg
same,IC50,Beta-secretase 1,> 10000 nM
same,IC50,[1],7560 nM
same,IC50,Plasmepsin II,> 10000 nM
same,IC50,Plasmodium falciparum [2],83 nM
CN(C)c1ccc(CNC(=O)[C@@H]2CNC[C@H]2c2ccc(Oc3ccccn3)cc2)cc1 (racemic),IC50,Plasmodium falciparum [2],16000 nM
CN(C)c1ccc(CNC(=O)[C@H]2CNC[C@@H]2c2cnc(C(F)(F)F)nc2)cc1 (racemic),IC50,[1],> 50000 nM
same,selectivity ratio,hERG,> 111
same,IC50,Plasmodium falciparum [2],450 nM
CN(C)c1ccc(CNC(=O)[C@@H]2CNC[C@H]2c2ccc(C(F)(F)F)cc2Cl)cc1 (racemic),IC50,Plasmodium falciparum [2],340 nM
CN(C)c1ccc(CNC(=O)[C@@H]2CNC[C@H]2c2ccc(C(C)(C)C)cc2)cc1 (racemic),IC50,Plasmodium falciparum [2],190 nM
CN(C)c1ccc(CNC(=O)[C@H]2CNC[C@@H]2c2ccc(S(F)(F)(F)(F)F)cc2)cc1 (racemic),IC50,Plasmodium falciparum [2],470 nM
CN(C)c1ccc(CNC(=O)[C@@H]2CNC[C@H]2c2ccc(Cl)c(Cl)c2)cc1 (racemic),IC50,Plasmodium falciparum [2],130 nM
CN(C)c1ccc(CNC(=O)[C@H]2CNC[C@@H]2c2ccc3sccc3c2)cc1 (racemic),IC50,Plasmodium falciparum [2],220 nM
C[C@@H]1CC[C@H]2[C@@H](C)C(=O)O[C@@H]3O[C@@]4(C)CC[C@@H]1[C@]32OO4 [ARTEMISININ],IC50,Plasmodium falciparum [2],54 nM
CCN(CC)CCCC(C)Nc1ccnc2cc(Cl)ccc12 (stereo not drawn) [CHLOROQUINE],inhibition in vivo at 10 mg/kg,Plasmodium chabaudi,95%
